Read-outs that look alike come from different tables or passages of the source.
Experiments:
[1] = test system: patterned hPSC-CMs; assay: Fluorometric cellular ROS / NO / superoxide detection assay in patterned hPSC-CMs; format: cell-based, human; details: patterned cells
Experimental: PGC1-α is known to perform a central controlling role in global oxidative metabolism through induction of mitochondrial biogenesis and tuning of the intrinsic metabolic properties of mitochondria_ENREF_35. […] Based on this understanding, a fluorometric cellular ROS detection assay was performed on unpatterned and patterned hPSC-CMs to determine whether upregulation of the PGC1-α protein in patterned cells had any notable impact on oxidative stress. FIGS. 8A-8F show the effect of nanotopography on expression of oxidative stress markers in cultured hPSC-CMs. […] Samples analyzed were patterned cells treated with an NO scavenger (NO−), patterned cells treated with an NO inducer (NO+), untreated unpatterned cells, and untreated patterned cells. […] No difference was observed between flat and patterned samples. […] Samples analyzed were patterned cells treated with an ROS inhibitor (ROS−), patterned cells treated with an ROS inducer (ROS+), untreated unpatterned cells, and untreated patterned cells. […] […] A significant difference was also observed between flat and patterned samples. In all presented data, *p<0.05.

[2] = test system: hPSC-CM monolayers; assay: MEA field potential recording (FPDc, arrhythmia) of hPSC-CM monolayers on flat MEAs and nanoMEAs
Description: Median difference in beat interval (ΔBI), mean ΔBI, and the standard deviation of the ΔBI were compared in order to provide quantification of baseline arrhythmic properties in line with previously published methods.
The ability to pattern individual wells within a multiwell MEA plate enabled assessment of multiple doses across both surface conditions within a single device, thereby increasing throughput for such comparative studies. Verapamil was first examined as a negative control compound.
FIG. 12A depicts representative traces (averaged across 10 beats) recorded from hPSC-CM monolayers on flat MEAs and subjected to increasing doses of verapamil. FIG. 12B depicts representative traces recorded from hPSC-CM monolayers on nanoMEAs and subjected to increasing doses of verapamil. FIG. 12C depicts normalized dose response curve illustrating the effect for increasing concentrations of verapamil on the field potential durations corrected for beat rate (FPDc) of unpatterned and patterned hPSC-CMs.
[…] depicts representative traces recorded from hPSC-CM monolayers on flat MEAs and subjected to increasing doses of cisapride. […] depicts representative traces recorded from hPSC-CM monolayers on nanoMEAs and subjected to increasing doses of cisapride. FIG. 12F depicts normalized dose response curve illustrating the effect of increasing concentrations of cisapride on the FPDc of unpatterned and patterned hPSC-CMs.
The mechanism by which bepridil prolongs QT is yet to be fully elucidated. However, in addition to regulating Ca^2+ release, it is known that bepridil competes with cTnI for troponin C binding sites, thereby altering Ca^2+ sensitivity in exposed cells. […] FIG. 12G depicts representative traces recorded from hPSC-CM monolayers on flat MEAs and subjected to increasing doses of bepridil. FIG. 12H depicts representative traces recorded from hPSC-CM monolayers on nanoMEAs and subjected to increasing doses of bepridil. FIG. 12I depicts normalized dose response curve illustrating effect of increasing concentrations of bepridil on the FPDc of unpatterned and patterned hPSC-CMs.

[3] = test system: hPSC-CM monolayers; assay: MEA conduction velocity (TCV, LCV) across hPSC-CM monolayers on flat and nanotopographically-patterned MEAs; format: cell-based, human; details: for IC50: Homo sapiens, longitudinal conduction velocity, read-out: IC50 from LCV data
Description: Additionally, interrogation of monolayer culture by MEA facilitates assessment of conduction velocity in a manner that is difficult when using single cell analysis methods, such as patch clamp electrophysiology. For all propagation experiments discussed herein, longitudinal conduction dictates the vertical orientation on the MEA as all nanopatterns were oriented to run vertically during pattern generation. FIG. 6I depicts measurement of conduction velocity (CV) across hPSC-CM monolayers on flat and nanotopographically-patterned MEAs. Conduction was measured specifically in both the transverse (TCV) and longitudinal (LCV) orientations and underlying nanotopography was organized to run longitudinally. In all presented data, *p<0.03, **p<0.003, ***p<0.001. […] Furthermore, longitudinal conduction velocities measured from patterned cells were substantially faster than similar measurements taken from flat controls, as well as global (non-directional) conduction velocity measurements. Specifically, longitudinal conduction velocity measured from patterned cells was recorded as 32.73 cm/s±9.51, whereas flat controls produced longitudinal and global conduction speeds of 10.32 cm/s±2.62 and […], respectively.
In cardiac tissue, it is known to exert a strong conduction blocking effect, inhibiting action potential propagation and in turn affecting synchronous contraction of the tissue.
Dose response curves were calculated from analysis of propagation speeds in both the transverse (TCV) and longitudinal (LCV) directions. The R^2 values for TCV and LCV curve fits were 0.23 and 0.11, respectively. […] The R^2 values for TCV and LCV curve fits were 0.21 and 0.28, respectively.
Furthermore, the inconsistency of the propagation waves on these surfaces led to substantial variability in measured values across experimental repeats, making it difficult to construct well-fitted dose response curves. […] Residual values indicate the vertical distance (in Y units; in this case % change in conduction velocity) of the measured points from the fit line.

[4] = test system: 3D cardiac tissues; assay: Field potential duration of 3D cardiac tissues on nanoMEA; format: cell-based; details: increasing doses, 3D patterned versus 2D unpatterned and 2D patterned, 21 days culture
Experimental: FIG. 15 depicts engineered cardiac tissue responses to treatment with increasing doses of the hERG channel blocker cisapride on 2D unpatterned, 2D patterned and 3D patterned cell cultures. […] In this experiment, cells are first plated onto a nanoMEA substrate in a 4 μL droplet of medium. 17,500 cells are resuspended in this droplet and allowed to adhere to the substrate for 1 hour. At this point, a further 17,500 cells in 2 μL of medium are plated on top of the existing droplet and allowed to adhere to the first layer of cells. This process is repeated 2 more times to form 4 layers of cells on top of the patterned substrate. Cells on the first layer align in parallel with the underlying substrate and subsequent layers align in parallel with the layer below. Cardiomyocytes are mixed with cardiac fibroblasts at a ratio of 10 cardiomyocytes to 1 fibroblast. An hour after the last plating, the MEA wells are flooded with additional medium to maintain the cells and the constructs are then cultured out to 21 days before being used for drug screening assessment.

[5] = test system: HCM hPSC-CMs (MYH7 R663H variant); assay: Depolarizing spike slope of HCM patient-derived hPSC-CMs on flat and patterned MEAs; format: cell-based, human; details: 1 μM, 30 minutes, patterned HCM cells
Description: Hypertrophic cardiomyopathy (HCM) manifests as a thickening of the myocardial tissue, typically due to mutations in genes encoding specific sarcomeric proteins.
FIG. 14A depicts an immunostained image of hPSC-CMs obtained from HCM patients and maintained on flat Nafion substrates. FIG. 14B depicts an immunostained image of hPSC-CMs obtained from an unaffected family member related to the examined HCM patient and maintained on flat Nafion substrates. FIG. 14C depicts an immunostained image of hPSC-CMs obtained from HCM patients and maintained on patterned Nafion substrates. FIG. 14D depicts an immunostained image of hPSC-CMs obtained from an unaffected family member related to the examined HCM patient and maintained on patterned Nafion substrates. FIG. 14E depicts quantification of sarcomere length measured from HCM and familial control hPSC-CMs maintained on flat and patterned Nafion substrates. FIG. 14F depicts quantification of z-band width measured from HCM and familial control hPSC-CMs maintained on flat and patterned Nafion substrates. FIG. 14G depicts representative QRS complex traces collected from HCM hPSC-CMs on flat and patterned MEAs. FIG. 14H depicts fold-change in average spike slope (Q-R angle) measured across 30 beats from normal and HCM hPSC-CMs on flat and patterned MEAs. […]

[6] = unpatterned and patterned cells, increasing doses

Question: How did the “pixel intensity, NO detection reagent” value [1] turn out when `N=C(N)NCCC[C@H](N)C(=O)O` [L-arginine] was run?
Answer: Its value is “significantly higher than all other groups”.

Question: For `CC(=O)N[C@@H](CS)C(=O)O` [N-acetyl-L-cysteine], which “pixel intensity, oxidative stress detection reagent” value [1] is on record?
Answer: Its value is “significantly lower than all other groups examined, with the exception of the patterned samples”.

Question: And the “pixel intensity, superoxide detection reagent” value [1]?
Answer: The value was “significantly lower than all other groups”.

Question: Which results are given for `Cn1c2cccc(=O)c-2nc2ccccc21` [Pyocyanin]?
Answer: pixel intensity, oxidative stress detection reagent [1]: significantly higher values then all other groups; pixel intensity, superoxide detection reagent [1]: significantly higher than all other groups

Question: Which “change in FPDc” value [2] does the source give for `CC(C)COCC(CN(Cc1ccccc1)c1ccccc1)N1CCCC1` (stereo not shown) [bepridil] here?
Answer: Its value is “not significantly different from baseline”.

Question: And the “effect on FPDc” value [2]?
Answer: Its value is “significant prolongation of FPDc”.

Question: And the “change in FPDc from baseline” value ([2]; 1 μM, flat cells)?
Answer: Its value is 7%.

Question: And the “increase of FPDc from baseline” value ([2]; 1 μM, patterned cells)?
Answer: Its value is “roughly 20%”.

Question: For `CC1(C)[C@@H](OC(=O)CCC(=O)O)CC[C@]2(C)[C@H]3C(=O)C=C4[C@@H]5C[C@@](C)(C(=O)O)CC[C@]5(C)CC[C@@]4(C)[C@]3(C)CC[C@@H]12` [carbenoxolone], which IC50 ([3]; flat hPSC-CM monolayers) is on record?
Answer: Its IC50 is 398 nM.

Question: What about the IC50 ([3]; nanotopographically-patterned hPSC-CM monolayers) of the same compound?
Answer: Its IC50 is 14.7 nM.

Question: What about the “effect on conduction speeds” value ([3]; in vitro, nanoMEA platform) of the same compound?
Answer: The value was “significantly reduced conduction speeds”.

Question: Which “field potential duration prolongation, 3D versus 2D cultures” value [4] does the source give for `COc1cc(N)c(Cl)cc1C(=O)NC1CCN(CCCOc2ccc(F)cc2)CC1OC` (stereo not shown) [cisapride] here?
Answer: The value was “significantly stronger reactions”.

Question: And the “effect on FPDc / field potential” value [2]?
Answer: Its value is “significant prolongation of the field potential”.

Question: What about the FPDc prolongation ([2]; 1 μM, cells on both substrates) of the same compound?
Answer: The FPDc prolongation was ~50%.

Question: Which arrhythmogenic effect [2, 6] does the source give for `COc1ccc(CCN(C)CCCC(C#N)(c2ccc(OC)c(OC)c2)C(C)C)cc1OC` (stereo not shown) [verapamil] here?
Answer: The arrhythmogenic effect was “no notable arrhythmogenic effect”.

Question: What about the “effect on FPDc / field potential” value [2, 6] of the same compound?
Answer: Its value is “significant shortening of FPDc”.

Question: And the “effect on depolarizing spike slope” value [5]?
Answer: Its value is “improved patterned HCM spike slopes”.

Question: How did the “pixel intensity, NO detection reagent” value [1] turn out when c-PTIO was run?
Answer: The value was “significantly lower than all other groups”.

Reference: patent US20200055041A1, “DEVICE, SYSTEM AND METHODS FOR ELECTROPHYSIOLOGICAL INTERROGATION OF CELLS AND TISSUES” (Nanosurface Biomedical, Inc., priority 2017, published 2020)
